# Experimental data reported in paper PMC9953224, “Pharmacokinetic Evaluation of New Drugs Using a Multi-Labelling Approach and PET Imaging: Application to a Drug Candidate with Potential Application in Neuromuscular Disorders” (Biomedicines, 2023).
# Where two headings read alike, the source gives them in different places.
# How the values were obtained:
# [1] = In vitro metabolism with rat liver microsomes; format: in vitro ADME; details: NADPH, 30 min
# Method: Labelled compounds ([^11C]AHK2.1, 2.8 MBq, 0.4 nmol; [^11C]AHK2.2, 4.7–5.1 MBq, 0.2–0.4 nmol; [^3H]AHK2, 0.25 MBq, 0.5 nmol; or non-radioactive AHK2, the latter for metabolite identification) and microsomal protein (rat Sprague Dawley microsomes, Thermo Fisher Scientific, Carlsbad, CA, USA; which are a sub-cellular fraction of hepatocytes containing enzymes responsible for the metabolism of over 90% of commercial drugs; 20 mg/mL) were pre-incubated for 5 min with gentle agitation (300 rpm) in 100 mM phosphate buffer (pH 7.4). The reaction was initiated by the addition of 10 μL freshly prepared 20 mM nicotinamide adenine dinucleotide phosphate (NADPH, Roche, Mannheim, Germany) in 100 mM phosphate buffer (pH 7.4). […] The resulting supernatants were analysed by HPLC, using an Agilent 1200 Series chromatograph equipped with a multiple wavelength UV detector (λ = 254 nm) and two radioactivity detectors, one of them equipped with a solid scintillation cell, especially designed to detect low energy β^- (Ramona, Raytest), and one of them equipped with a NaI crystal, for the detection of γ-rays (Gabi, Raytest). […] For the non-radioactive AHK2, the resulting supernatants were analysed by ultra-high-performance liquid chromatography coupled with electrospray ionization time-of-flight mass spectrometry (UHPLC-ESI-TOF-MS, Electrospray positive mode/W mode m/z range 100–1000). […]
# [2] = Pharmacokinetics from metabolite-corrected arterial plasma TACs after oral administration; format: in vivo, Sprague Dawley Rats; details: for MRT / half-life: Sprague Dawley, rat, arterial plasma; for MRT: read-out: MRT mean residence time (converted); for half-life: read-out: t1/2 terminal half-life
# Method: Anaesthesia was induced with 5% isoflurane (IsoFlo®, Abbott Laboratories, Abbott Park, IL, USA) and maintained by 2% of isoflurane in 100% O2. During the experiment, rats were kept normothermic using a heating blanket (Homeothermic Blanket Control Unit; Bruker). The rat was positioned in supine position on an operating table and the two distal hind limbs were fixed forming an approximately 30° angle with the horizontal plane. The surgical region was scrubbed using Betadine, starting in the centre, and making a circular sweep outward. A skin incision was made in the femoral region. Soft tissue was dissected to expose the femoral neurovascular bundle, consisting of femoral vein, artery, and nerve. Fine tip forceps were placed between the artery, vein and nerve and were slowly opened to separate the vessels, exposing an approximately 1 cm length section of artery/vein. The vena profunda femoris was sutured to avoid retrograde bleeding via this vessel, and the sapheno-femoral junction was cauterized. A few millimetres from venatomy, a vascular clip was inserted in the direction of the catheter (to control the flow) and a suture was applied in the opposite direction (to avoid retrograde bleeding). The same operation was carried out both on the femoral vein and femoral artery. An appropriate syringe filled with 50 U/mL Heparin/physiologic saline solution was fixed at the terminus of the catheters and these were filled with heparinized saline solution. On the upper half of the vessel circumference, at a 45° angle, an incision was made and the catheter (fine bore polythene tubing: ID 0.58 mm, OD 0.98 mm) was inserted through the venotomy and advanced to the vascular clip. The vascular clip was then removed, and the catheter advanced distally towards the level of the inguinal ligament. The catheter was finally secured to the femoral vein/artery proximally and distally with 2 single knots using 4–0 braided silk suture. The catheters were connected to an in-house developed system composed by a peristaltic pump and gamma-radiation coincidence detector (Bioscan, B-FC-4100). The femoral artery catheter, the gamma detector, the peristaltic pump, and the femoral vein catheter were thus connected in series, to enable the extracorporeal circulation of blood (flow 150 μL/s from femoral artery to femoral vein) and continuous measurement of radioactivity in the blood (Figure 1).
# The labelled compounds were administrated two different ways: (i) intravenous bolus infusion (ca. 37 MBq in 300 μL of saline solution was injected through the femoral vein catheter) and (ii) oral bolus administration. For oral administration, animals were fasted for 5 h. The radioactive dose (ca. 74 MBq in 300 μL of saline solution) was administered using flexible 20-gauge disposable flexible PTFE feeding needles (Fine Science Tools, F.S.T.) and a small animal Laryngoscope (Penn-Century, Model LS-2) for the correct visualization of the oesophagus. The study was conducted under no carrier added (NCA, dose adjusted to 1 μg/Kg) and carrier added (CA, dose adjusted to 5 mg/Kg) conditions. In all cases, data were imported in real time to an excel sheet using PLX-DAX add-on for Microsoft Excel (measured in volts per second).
# Arterial blood samples (1 per animal) were withdrawn (see Figure 1) from the femoral artery catheter and introduced into a capillary (Microhaematocrit capillaries 75 × 1.55, Nahita). Samples were centrifuged at 11,000× g […] for 10 min and the haematocrit was determined. A second blood sample was withdrawn and the amount of radioactivity of a fixed volume (10 µL) was measured in an automatic gamma counter (2470 Wizard, PerkinElmer) to determine Cb (concentration of radioactivity in blood) and convert data imported with PLX-DAX (Volts per seconds) into Bq/s using a previously determined calibration curve. Values were then expressed as percentage of injected dose per gram of blood (% ID/g). […]
# [3] = both groups (1 µg/Kg and 5 mg/Kg) pooled together
compound,measurement,setting,value
"COc1ccc(SCc2cn(CCN(C)C)nn2)cc1 [AHK2, 1-[2-(N,N-dimethylamino)ethyl]-4-[(4-methoxyphenyl)thiomethyl]-1H-1,2,3-triazole]",main metabolic pathways,[1],"oxidation of the thioether group into sulfoxide, demethylation of the CH3O-Ar residue and demethylation of –N(CH3)2"
same,AUC area under the curve,[2]; 1 µg/Kg,6.68 ± 4.35 %IDxs/mL
same,Cl plasma clearance,[2]; 1 µg/Kg,4.23 ± 3.58 mL/s
same,Vz volume of distribution based on the terminal slope,[2]; 1 µg/Kg,2728.14 ± 1252.35 mL
same,AUC area under the curve,[2]; 5 mg/Kg,13.35 ± 5.08 %IDxs/mL
same,Cl plasma clearance,[2]; 5 mg/Kg,1.57 ± 0.69 mL/s
same,Vz volume of distribution based on the terminal slope,[2]; 5 mg/Kg,1624.28 ± 1299.35 mL
same,MRT,[2]; 1 ug/kg,8.51 min
same,half-life,[2]; 1 ug/kg,9.16 ± 3.78 min
same,MRT,[2]; 5 mg/Kg,9.36 min
same,half-life,[2]; 5 mg/Kg,13 ± 11.1 min
same,MRT,[2]; [3],9 min
same,half-life,[2]; [3],11.3 ± 8.44 min
same,AUC area under the curve,[2]; [3],10.49 ± 5.65 %IDxs/mL
same,Cl plasma clearance,[2]; [3],2.71 ± 2.55 mL/s
same,Vz volume of distribution based on the terminal slope,[2]; [3],2097.36 ± 1309.61 mL
